Data: patent publication US6867179B1, “Methods of inducing hair growth and coloration” (Trustees of Boston University, priority 1994, dated 2005)
No end group written: not given here.

Experiments:
Bax = Bax level in beta-amyloid treated melanocytes (Western blot); type: cell-based, human
Procedure: To investigate the mechanism of -amyloid-mediated melanocyte death, Bax levels in melanocytes treated with 25 uM of 1-40 or 25-35-amyloid peptides was examined. Within 4 days of treatment, Bax was induced 3 fold in melanocytes stimulated either with the beta-amyloid 1-40 or 25-35 fragments as compared to melanocytes treated with the 40-1 control fragment or an irrelevant HPLC purified protein of similar size.
Melanocytes were maintained as above. Four days after addition of 25 microM of beta-amyloid fragments 1-40 40-1 or 25-35; or 25 microM of HPLC-purified bovine corticotropin releasing factor (CRF) (Bachem Calif.) (MW 4.7 kD) as an additional negative control, cells were extracted in RIPA buffer (50 mM Tris-HCl [pH 8.0], 0.15 M NaCl, 0.5% sodium deoxycholate, 1% Triton X-100) in the presence of 1 microg/ml aprotinin and 75 microg/ml phenylmethylsulfonyl fluoride (PMSF), sonicated for 1-3 seconds and centrifuged. 40 microg of protein per lane were separated on 12% SDS/PAGE and blotted onto nitrocellulose paper (overnight, 25C). To verify equal loading a duplicate 13% SDS/PAGE was performed and stained with Coomasie Blue R250 stain. […] Bound antibodies were detected using enhanced chemiluminescence kit (Amersham Corp.). […]

p75^NTR-NIH 3T3 cells = assay: Effect of KGA-containing peptides on survival of beta-amyloid treated p75NTR-NIH 3T3 cells; type: cell-based; details: 250 nM peptide, 250 nM preaggregated beta-amyloid 1-40, 72 hours
Procedure: p75^NTR-NIH 3T3 cells were maintained in DME supplemented with 10% calf serum until 80% confluent. The cells were washed and incubated in serum free DME containing transferrin (5 microg/ml) and insulin (5 microg/ml). Triplicate dishes were supplemented with diluent or preaggregated beta-amyloid 1-40 (250 nM) as […]. […] After 72 hours, cells were rinsed in PBS and cultures were incubated in 0.25% trypsin at 37° C. Cell yields were determine using a particle counter.

human p75 = assay: p75 apoptotic signaling in 3T3-p75 cells (aggregation, c-jun, JNK, caspase-3, DNA fragmentation); type: cell-based; details: peptide pretreatment, then βA
Procedure: To investigate p75 early signaling, NIH-3T3 cells engineered to constitutively express human p75 (3T3-p75), were stimulated with a known p75 ligand β amyloid (βA), and the distribution of p75 on the cell surface was analysed using immunohistochemistry and confocal laser microscopy. […] (FIG. 13)
To determine if the initial step of p75 aggregation is required for initiation of apoptosis, 3T3-p75 were pretreated with an HPLC purified cyclic peptide (CATDIKGAEC) (SEQ ID NO:9) that binds the ligand binding site of p75, and then cultures were stimulated with βA or with diluent alone.

p75 = p75 signal transduction in melanocytes (JNK activation, intracellular ceramide); type: cell-based, human
Procedure: To investigate p75 signal transduction, it was first determined by RT-PCR that trkA and trkC are not expressed in MC maintained in choleragen/TPA-free medium. MC were incubated with 10 ng/ml nerve growth factor (NGF) or neurotrophin-3 (NT-3) for 30 minutes and c-Jun amino terminal kinase (JNK) activation was determined. […] Furthermore, within 3 hours p75 activation by NGF, but not by NT-3, lead to a 2-fold increase of intracellular ceramide. As before, ceramide increase was abrogated by pre-incubation with the cyclic peptide. Because in cell lines, UV irradiation directly activates cell surface receptors such as Fas and the TNFα receptor, sham- or UV-irradiated MC were used to determine p75 activation.

BCL-2 = BCL-2 antisense oligonucleotides in UV-irradiated MM4 cells with or without NGF; type: cell-based, human
Description: Purified phosphorothioate oligonucleotides were purchased from Quality Controlled Biochemicals, Inc. (Hopkinton, Mass.). 19 mer oligonucleotides were designed based on the published human BCL-2 sequence (Tsujimoto, Y. and Croce, C. M., Proc. Natl. Acad. Sci. USA, 83:5214-5218 (1986)). The sequence chosen was directed against the […] of the coding region starting 4 bases before the methionine initiation site. Nonsense oligonucleotides were used as control. Sequences used (all written 5′ to 3′): Antisense CCCAGCGTGCGCCATCCTT (SEQ ID NO: 7); Nonsense CTCCCACTCGTCATTCGAC (SEQ ID NO: 8).
MM4 cells were maintained in 60 mm diameter tissue culture dishes in 55.3% DME, 27.6% L15, 15% FBS, 1% nonessential amino acids (GIBCO BRL), 2 mM glutamine and 10 µg/ml insulin. Near confluent cells were UV irradiated with 10 mJ/cm^2. Immediately after irradiation cells were incubated with 10 uM antisense or nonsense BCL-2 oligonucleotides in suspension at […] for 30 minutes. Then cells were plated in tissue culture dishes in the presence or absence of NGF (50 ng/ml). Cells were supplemented with fresh oligonucleotides every 12 hours. Cell yield and BCL-2 level were determined 48 hours after irradiation. Cell yield was determined by counting cells in at least three representative field per each condition.

p75 NGF-R = p75 NGF-R antisense oligonucleotides in UV-irradiated, NGF-supplemented melanocytes; type: cell-based, human; details: UV 20 mJ/cm^2, 10 uM oligonucleotide, 48 hours
Procedure: The following sequences were used: Antisense 5' to 3' […] NO: 5); Nonsense 5' to 3° […] NO: 6) (negative control). […] Near confluent cells were irradiated using a 1 KW xenon arc solar simulator (XMN 1000-21, Optical Radiation Corp., Azuza, Calif.) with 20 mJ/cm^2 UV through the petri dish plastic cover. Irradiance was adjusted to 4×10^-5 UV cm^-2 and metered with a research 20 radiometer (model I[…], International Light, Newburyport, Mass.) fitted with a UVB probe at 285 Å 5 nm. […] After the initial 30 minute incubation cells were plated in 35 mm dishes in basal melanocyte medium without serum. Cells were supplemented with fresh oligonucleotides every 12 hours for 48 hours. Cells were visualized by phase contrast microscopy and pictures of representative fields were obtained. Cell yields were determined by counting cells in several representative fields.

MM4 cells = assay: MM4 cell yields after UV or sham irradiation with growth factor supplementation; type: cell-based, human
Procedure: Melanocytes or MM4 cells were plated in 60 mm diameter tissue culture dishes. Melanocytes were maintained in Medium 199 supplemented with 7% fetal bovine serum (FBS), 10 ng/ml epidermal growth factor (Collaborative Research), […] (Sigma), […] (Collaborative Research), […] (Sigma), 1.4×10^−6 M hydrocortisone (Calbiochem), […] (Calbiochem), and 10 ng/ml basic fibroblast growth factor (Collaborative Research) (basal melanocyte medium). MM4 cells were maintained in 55.3% DME, 27.6% L15, 15% FBS, 1% nonessential amino acids (GIBCO BRL), 2 mM glutamine and 10 µg/ml insulin. After 24 hours, medium was replaced by phosphate buffered saline (PBS) and cells were irradiated using a 1 KW xenon arc solar simulator (XMN 1000-21, Optical Radiation Corp., Azuza, Calif.) with 5, 10, or 25 mJ/cm^2 UV through the petri dish plastic cover. Irradiance was adjusted to 4×10^−5 UV cm^−2 and metered with a research radiometer (model IL1700A, International Light, Newburyport, Mass.) fitted with a UVB probe at 285 Å 5 nm. After UV irradiation, cells were maintained in their respective media without FBS for 2 days (MM4 cells) or 3 days (melanocytes) and processed as indicated. Sham irradiated control cultures were handled identically but laced under a dark cloth adjacent to the UV beam.
FIGS. 2B and 2D show MM4 cell yields 24-72 hours after a single UV irradiation of 10 mJ/cm^2. FIGS. 2C and 2e show MM4 cell yields 24-72 hours after sham irradiation. Cells in FIGS. 2B and 2C were supplemented with 50 ng/ml NGF or diluent alone. Cells in FIGS. 2D and 2E were supplemented with 50 ng/ml bFGF or diluent alone.
Melanocytes or MM4 cells were plated as described in Example 1. After irradiation, melanocytes were maintained in basal melanocyte medium lacking FBS and hydrocortisone, with 50 ng/ml NGF or diluent alone (melanocyte medium). MM4 cells were maintained in DME supplemented with 50 ng/ml NGF or diluent alone.

[1] = target: human p75 nerve growth factor receptor (human) (UniProt P08138); assay: cell-based or functional assay
[2] = target: p75^NTR over expressed on permanently transfected NIH 3T3 fibroblasts (p75^NTR NIH 3T3 cells); assay: cell-based or functional assay
[3] = target: p75^NTR over expressed on permanently transfected NIH 3T3 fibroblasts (p75^NTR NIH 3T3 cells); assay: competition with 125I beta-amyloid 1-40 on p75^NTR-NIH 3T3 cells, NGF 0-100 ng/ml, counting of lysates
[4] = target: p75^NTR over expressed on permanently transfected NIH 3T3 fibroblasts (p75^NTR NIH 3T3 cells); assay: competition with 125I beta-amyloid 1-40 on p75^NTR-NIH-3T3 cells in suspension, 4 hours, counting of lysates
[5] = target: the molecule itself; assay: cross-linking of 3T3-p75 cells stimulated with βA, western blot with anti p75 antibodies
[6] = pre-incubation with cyclic peptide

25-35: beta-amyloid fragment 25-35 (GSNKGAIIGLM; Amyloid-beta protein 42; UniProt P05067 696-706, looked up, fragment)
Bax induction versus 40-1 control fragment or irrelevant protein (Bax; 25 uM, within 4 days): 3 fold
Bax level as compared to the 40-1 peptide (Bax; 25 microM, four days): 160%

CATDIKGAEC (also: cyclic, ring type not given here)
Cell yields, cyclic peptide and beta-amyloid versus beta-amyloid alone (p75^NTR-NIH 3T3 cells): significantly higher
c-jun transcription (human p75): decreased c-jun transcription
p75 aggregation (human p75): inhibited p75 aggregation
JNK activation in NGF stimulated cells (p75; [6]): abrogated JNK activation
NGF-induced ceramide increase (p75; [6]): abrogated

CCCAGCGTGCGCCATCCTT (DNA, all phosphorothioate, methylation of C not given here; listed as Homo sapiens) [BCL-2 antisense oligonucleotides]
BCL-2 levels (Western blot) (BCL-2; 10 uM antisense, 48 hours after UV 10 mJ/cm^2): almost undetectable
Cell yields, NGF plus BCL-2 antisense versus NGF plus nonsense (BCL-2; UV 10 mJ/cm^2, 10 uM oligonucleotide, NGF 50 ng/ml, 48 hours): significantly lower

CKGAIC (also: cyclic, ring type not given here) [cyclic KGA-containing hexapeptide]
Cell yields, cyclic peptide and beta-amyloid versus beta-amyloid alone (p75^NTR-NIH 3T3 cells): significantly higher

GGCACCTGCCCCCATCGCC (DNA, all phosphorothioate, methylation of C not given here; listed as Homo sapiens) [antisense NGF-R, 19 mer antisense against the 5′ end of the human p75 NGF-R coding region]
NGF effect on melanocyte survival (p75 NGF-R): NGF does not have an effect on melanocyte survival

bFGF: basic fibroblast growth factor, a major mitogen for cells of melanocytic origin
MM4 cell survival after UV irradiation (MM4 cells; UV 10 mJ/cm^2, 50 ng/ml bFGF): failed to improve MM4 cell survival
Effect on sham irradiated MM4 cells (MM4 cells; sham irradiation, 50 ng/ml bFGF): mitogenic effect

beta-amyloid 1-40 peptide (from UniProt P05067 1-40)
melanocyte cell yield (% decrease in cell yield) [1]: 59
cell yield (% reduction of cell yield) [2]: 60

nerve growth factor (ligand)
intracellular ceramide (fold increase) [1]: 2
maximum inhibition of ^125I beta-amyloid binding [3]: 38 % inhibition

CVGSNKGAIC (not fully specified (bridges); also: cyclic peptide, ring type not given here) [cyclic peptide … (SEQ ID NO: 4)]
IC50 [4]: 25 nM

B1: human p75 nerve growth factor receptor (receptor, UniProt P08138 29-427, looked up)
chain: KEACPTGLYTHSGECCKACNLGEGVAQPCGANQTVCEPCLDSVTFSDVVSATEPCKPCTECVGLQSMSAPCVEADDAVCRCAYGYYQDETTGRCEACRVCEAGSGLVFSCQDKQNTVCEECPDGTYSDEANHVDPCLPCTVCEDTERQLRECTRWADAECEEIPGRWITRSTPPEGSDSTAPSTQEPEAPPEQDLIASTVAGVVTTVMGSSQPVVTRGTTDNLIPVYCSILAAVVVGLVAYIAFKRWNSCKQNKQGANSRPVNQTPPPEGEKLHSDSGISVDSQSLHDQQPHTQTASGQALKGDGGLYSSLPPAKREEVEKLLNGSAGDTWRHLAGELGYQPEHIDSFTHEACPVRALLASWATQDSATLDALLAALRRIQRADLVESLCSESTATSPV
notes: whole, on cells; also called p75 NGF-R; p75^NTR
binding result [5]: binds

B2: NT-3: neurotrophin-3 (protein, UniProt P20783 139-257, looked up)
Neurotrophin-3: YAEHKSHRGEYSVCDSESLWVTDKSSAIDIRGHQVTVLGEIKTGNSPVKQYFYETRCKEARPVKNGCRGIDDKHWNSQCKTSQTYVRALTSENNKLVGWRWIRIDTSCVCALSRKIGRT
UV-induced JNK activation (p75; NT-3 pre-treatment, within 30 minutes of UV): partially decreased
Increase of intracellular ceramide (p75; within 3 hours): not by NT-3
